In general, IC50 refers to the concentration at which inhibition is half-maximal. Broadly, the Kd is the concentration at which binding is half-saturated.

Drawing on patent US20220031853A1, “HSP90-TARGETING CONJUGATES AND FORMULATIONS THEREOF” (TARVEDA THERAPEUTICS, INC., priority 2018, published 2022), this text covers IC50 and Kd for three compounds.

For assay [1], the system named is HCT-116 (colon) tumor cells. Nature of the assay: Tumor cell cytotoxicity assay (CellTiter-Glo), HCT-116. The assay is classed as cell-based. The following applies: Homo sapiens; HCT-116 cells, 72 hrs, CellTiter-Glo ATP levels; read-out: in vitro cytotoxicity IC50. As for the experimental part:
(§1) Tumor cells were plated at 500-5,000 cells per well and incubated for 20-24 hrs at 37 °C at 5% CO2. Post cell incubation, compounds were reconstituted in DMSO to a stock concentration of 200 uM. A compound plate was then prepared containing a 10 point dilution in RPMI+10% FBS+0.25% DMSO. 5 uL of the dilution was then added for a final working concentration range of 10 uM to 0.0005 uM. Compounds and cells were then incubated for up to 72 hrs. Cells were then analyzed by CellTiter-Glo for ATP levels and percent inhibition calculated.
(§2) BT474 (breast), LS174T (colon), or HCT-116 (colon) tumor cells were plated at 2500 cells per well and incubated for 20-24 hrs at 37 °C at 5% CO2. Post cell incubation, compounds were reconstituted in DMSO to a stock concentration of 200 uM. A compound plate was then prepared containing a 10 point dilution in RPMI+10% FBS+0.25% DMSO. 5 uL of the dilution was then added for a final working concentration range of 10 uM to 0.0005 uM. Compounds and cells were then incubated for 72 hrs. Cells were then analyzed by CellTiter-Glo for ATP levels and percent inhibition calculated.
(Cellular ATP, detected with luciferase, serves as a proxy for viable cell number.)

In assay [2] the test system is LS174T (colon) tumor cells. Nature of the assay: Tumor cell cytotoxicity assay (CellTiter-Glo), LS174T. The following applies: Homo sapiens, 72 hrs, CellTiter-Glo ATP levels, read-out: in vitro cytotoxicity IC50. The assay is classed as cell-based. As for the experimental part:
as §1, §2

Assay [3] relates to NCI-H460 cells (non-small cell lung cancer). Briefly: Tumor cell cytotoxicity assay (CellTiter-Glo), NCI-H460. The format is cell-based. The note with it: Homo sapiens, 48 hrs, CellTiter-Glo ATP levels, read-out: in vitro cytotoxicity IC50. As for the experimental part:
as §1
NCI-H460 cells (non-small cell lung cancer) were plated at 500 cells per well and incubated for 20-24 hrs at 37° C. at 5% CO2. Post cell incubation, compounds were reconstituted in DMSO to a stock concentration of 200 uM. A compound plate was then prepared containing a 10 point dilution in RPMI+10% FBS+0.25% DMSO. 5 uL of the dilution was then added for a final working concentration range of 10 uM to 0.0005 uM. Compounds and cells were then incubated for 48 hrs. Cells were then analyzed by CellTiter-Glo for ATP levels and percent inhibition calculated.

Assay [4] deals with BT474 (breast) tumor cells. Nature of the assay: Tumor cell cytotoxicity assay (CellTiter-Glo), BT474. The assay is classed as cell-based. The following applies: Homo sapiens, BT-474, 72 hrs, CellTiter-Glo ATP levels, read-out: in vitro cytotoxicity IC50. As for the experimental part:
as §1, §2

In assay [5] the target is T1, purified recombinant HSP90a (Homo sapiens, UniProt P07900).
T1 construct: purchased
Nature of the assay: HSP90a Assay Kit, fluorescence polarization competition with fluorescently labeled geldanamycin. The following applies: read-out: HSP90 Binding Kd. As for the experimental part:
The bindings of the conjugates to HSP90 were studied with the HSP90a Assay Kit. The HSP90a Assay Kit is designed for identification of HSP90a inhibitors using fluorescence polarization. The assay is based on the competition of fluorescently labeled geldanamycin for binding to purified recombinant HSP90a. The key to the HSP90a Assay Kit is the fluorescently labeled geldanamycin. The fluorescently labeled geldanamycin is incubated with a sample containing HSP90a enzyme to produce a change in fluorescent polarization that can then be measured using a fluorescence reader.
Background: Fluorescence polarisation rises when a labelled molecule tumbles more slowly, as on binding a larger partner.

Turning to `CCNC(=O)c1nnc(-c2cc(C(C)C)c(O)cc2O)n1-c1ccc(CN2CCN(C(=O)Cc3ccc(OC(=O)N(CC)C4CCN(C(=O)c5ccc(NC(=O)Nc6ccc(-c7nc(N8CCOCC8)nc(N8CCOCC8)n7)cc6)cc5)CC4)cc3)CC2)cc1` [Compound 18], the half-inhibitory concentration (IC50) in assay [1] was found to be 246 nM; in assay [2], 3370 nM; in assay [3] it was 389 nM; in assay [4] it was 1640 nM.

For the compound `CCNC(=O)c1nnc(-c2cc(C(C)C)c(O)cc2O)n1-c1ccc(CN2CCN(C(=O)Cc3ccc(OC(=O)N4CCN(c5ccc(-n6c(=O)n(C)c7cnc8ccc(-c9ccc(OC)nc9)cc8c76)cc5C(F)(F)F)CC4)cc3)CC2)cc1` [Compound 22], the equilibrium dissociation constant (Kd) in assay [5] was determined as 0.79 nM.

`CCNC(=O)c1nnc(-c2cc(C(C)C)c(O)cc2O)n1-c1ccc(CN2CCN(C(=O)[C@H](N)Cc3ccc(OC(=O)N4CCN(c5ccc(-n6c(=O)n(C)c7cnc8ccc(-c9ccc(OC)nc9)cc8c76)cc5C(F)(F)F)CC4)cc3)CC2)cc1` [Compound 26]: the equilibrium dissociation constant (Kd) in assay [5] turned out to be 1.22 nM.
